Measured values as given in patent US11564394B2, “Distorted gold (I)-phosphine complexes and methods for use as antifungal agents” (University of Kentucky Research Foundation, priority 2019, dated 2023).
Converted amounts (≈) assume the structure as drawn. Where two headings read alike, the source gives them in different places.

Legend:
[1] = test system: murine and human red blood cells (RBCs)
Protocol: The RBCs were resuspended in PBS to achieve a cell concentration of on the order of 10^7 cells/mL. Compounds were dissolved at concentration of 3.14 mg/mL (200×) in DMSO. Serial double dilutions were made in DMSO. A 1:100 dilution of compound in PBS was added to 100 of RBCs in a 96-well plate (total volume of 200 μL). Compounds were tested in the range of 0.06-15.6 μg/mL in quadruplicate with 0.5% DMSO and ˜5×10^6 RBCs per tube. The RBCs were also treated with 1% Triton-X® (positive control) and PBS (negative control). The RBCs were treated for 30 min at 37° C. and the absorbance was read at 595 nm. Hemolysis is visually observed by a decrease in optical density of the wells (turbid, dark red to transparent pink). Percent hemolysis (FIG. 5A-B) was calculated using this equation after subtraction of the background absorbance ([…]): […]

[2] = test system: C. auris AR Bank #0390 (strain L); test: Time-kill assay; format: cell-based, Candida auris; details: 1×MIC
[3] = test system: Candida biofilms; details: FDA-approved antifungal agents; cited from earlier work
[4] = test system: C. parapsilosis ATCC 22019 (strain J); test: MIC determination (broth microdilution); format: cell-based; details: strain J = C. parapsilosis ATCC 22019; MIC-0; 48 h; listed as printed beside letter K
[5] = test system: patients; details: 6 mg daily dose, oral; cited from earlier work
[6] = test system: Candida spp. biofilms; details: biofilms of Candida spp.
Protocol: For assays with a pre-formed biofilm, 100 μL of fungal cells were aliquoted in a 96-well plate, leaving one column empty for the sterile control. After 24 h incubation at 37° C., visible biofilms had formed in the well. The biofilm was washed three times with 100 μL of PBS. […] Plates were incubated at 37° C. for 24 h. Finally, the plates were washed three times with PBS before adding 100 μL of XTT dye. The XTT was prepared by dissolving XTT at 0.5 mg/mL concentration in sterile PBS. Before adding to a plate, 1 μL of 10 mM menadione in acetone was added to 10 mL of the 0.5 mg/mL solution of XTT. After addition of XTT (containing menadione), the plates were incubated for 3 h at 37° C. in the dark. 80 μL of liquid from each well was transferred to a new plate and then with the plate reader for absorbance at 450 nm. For these experiments, we determined the sessile MIC (SMIC90), which is defined as the compound concentration required to inhibit the metabolic activity of biofilm by 90% compared to the growth control (Table 3). […] Each assay was performed in duplicate.

[7] = test system: C. glabrata ATCC 2001 (strain H); details: subcultures exposed to ½ MIC
[8] = test system: C. albicans ATCC 10231 (strain B); details: subcultures exposed to ½ MIC
[9] = test system: Candida strains B, H, K and L; details: for mode of killing (time-kill): 1× and 2×MIC, 24 h; for decrease of fungal colony forming units (CFU): by the 3 h time point, no increase over 24 h
Protocol: The protocol for time-kill assays followed methods previously described with minor modifications.^34,90 Overnight cultures were grown in YEPD medium at 35° C. with shaking at 200 rpm. The overnight cultures were diluted in RPMI 1640 medium to an OD600 of 0.125 (˜x10^6 CFU/mL). Then, 200 μL of cells were added to 4.8 mL of RPMI 1640 medium in sterile culture tubes to afford a fungal cell concentration ˜1×10^5 CFU/mL. Compounds were then added to the fungal cells. […] Treated fungal cultures were incubated in the culture tubes at 35° C. with 200 rpm shaking for 24 h. Samples were aliquoted from the different treatments at regular time points (0, 3, 6, 9, 12, and 24 h) and plated in duplicate onto PDA plates. For each time point, cultures were vortexed, 100 μL of culture was aspirated, and 10-fold serial dilutions were made in sterile ddH2O. From the appropriate dilutions, 100 μL of fungal suspension was spread on agar plates and incubated at 35° C. for 48 h before colony counts were determined. Only plates containing between 30 and 300 colonies were counted, making 30 CFU/mL the limit of detection. At 24 h, 50 μL of sterile 2 mM resazurin in phosphate buffered saline (PBS) was added to the treatments and incubated at 35° C. with 200 rpm shaking for 2 h in the dark for visual inspection.

[10] = test system: C. auris AR Bank #0384 (strain K)
Protocol: (§1) The protocol for time-kill assays followed methods previously described with minor modifications.^34,90 Overnight cultures were grown in YEPD medium at 35° C. with shaking at 200 rpm. The overnight cultures were diluted in RPMI 1640 medium to an OD600 of 0.125 (˜x10^6 CFU/mL). Then, 200 μL of cells were added to 4.8 mL of RPMI 1640 medium in sterile culture tubes to afford a fungal cell concentration ˜1×10^5 CFU/mL. Compounds were then added to the fungal cells. […] Treated fungal cultures were incubated in the culture tubes at 35° C. with 200 rpm shaking for 24 h. Samples were aliquoted from the different treatments at regular time points (0, 3, 6, 9, 12, and 24 h) and plated in duplicate onto PDA plates. For each time point, cultures were vortexed, 100 μL of culture was aspirated, and 10-fold serial dilutions were made in sterile ddH2O. From the appropriate dilutions, 100 μL of fungal suspension was spread on agar plates and incubated at 35° C. for 48 h before colony counts were determined. Only plates containing between 30 and 300 colonies were counted, making […] the limit of detection. At 24 h, 50 μL of sterile 2 mM resazurin in phosphate buffered saline (PBS) was added to the treatments and incubated at 35° C. with 200 rpm shaking for 2 h in the dark for visual inspection.

[11] = test system: C. albicans ATCC 10231 (strain B)
Protocol: as §1

| Compound | hemolysis ([1]; at 7.8 μg/mL) | hemolysis ([1]; at 15.6 μg/mL) [%] | time at which the limit of detection was reached [2] [h] | SMIC90 (literature) [3] [µg/mL] | MIC [4] [µg/mL] | MIC (in parentheses) [4] [µM] | hemolytic activity ([1]; at 15.6 μg/mL) | tolerability in patients [5] | activity against biofilms [6] | changes in MIC values over fifteen serial passages [7] | changes in MIC values over fifteen serial passages [8] | mode of killing (time-kill) [9] | decrease of fungal colony forming units (CFU) [9] [CFU/mL] | time at which the limit of detection was reached ([10]; 1×MIC) [h] | time at which the limit of detection was reached ([11]; 2×MIC) [h] | time at which the limit of detection was reached ([10]; concentration not specified (tested at 1× and 2×MIC), failed to reach the limit) [h] | time at which the limit of detection was reached ([11]; 1×MIC, limit of detection 30 CFU/mL) [h] |
| --- | --- | --- | --- | --- | --- | --- | --- | --- | --- | --- | --- | --- | --- | --- | --- | --- | --- |
| C[C@@H]1[C@H](O)[C@@H](C)/C=C/C=C/C=C/C=C/C=C/C=C/C=C/[C@H](O[C@@H]2O[C@H](C)[C@@H](O)[C@H](N)[C@@H]2O)C[C@@H]2O[C@](O)(C[C@@H](O)C[C@@H](O)[C@H](O)CC[C@@H](O)C[C@@H](O)CC(=O)O[C@H]1C)C[C@H](O)[C@H]2C(=O)O [AmB, amphotericin B, reference compound] | 30-60% | 100 | 9 | 0.5 to 128 | 3.9 (≈ 4.22 µM) | 4.2 (≈ 3.88 µg/mL) |  |  |  |  |  |  |  |  |  |  |  |
| CC(=O)OC[C@H]1O[C@@H]([S-])[C@H](OC(C)=O)[C@@H](OC(C)=O)[C@@H]1OC(C)=O.CCP(CC)CC.[Au+] [Auranofin, auranofin, reference compound] |  |  |  |  | > 31.3 | > 46.1 | no hemolytic activity | well-tolerated |  |  |  |  |  |  |  |  |  |
| bis-[1,2-bis[(2R,5R)-2,5-dimethylfphospholano]benzene]gold(1) [Compound 6] |  |  |  |  | 0.49 | 0.6 |  |  | good activity | no significant changes in MIC values | no significant changes in MIC values | fungicidal | 102 | 6 | 3 |  |  |
| bis-[1,2-bis[(2S,5S)-2,5-dimethylphospholano]benzene]gold(I) [Compound 4] |  |  |  |  | 0.98 | 1.2 |  |  | good activity | no significant changes in MIC values | no significant changes in MIC values | fungicidal | 102 |  |  | > 24 | 9 |
